What all share (format): cell-based
Assay [1] concerns Staphylococcus aureus 209. Put plainly: in vitro antibacterial test (modified Autotiter method), minimum inhibitory concentration. How it is done:
(§1) The antibacterial activity was determined using a modification of the Autotiter method described by Goss et al., Applied Microbiology, 16 (No. 9), 1414-1416 (1968) in which a 1000 mcg./ml. solution of the test compound is prepared. To the first cup of the Autotray is added 0.1 ml. of the test solution. Activation of the Autotiter initiates a sequence of operations by which 0.05 ml. of the test compound solution is withdrawn from this cup by a Microtiter transfer loop and diluted in 0.05 ml. of sterile semisynthetic medium (glucose). After this operation, 0.05 ml. of inoculated semisynthetic medium is added automatically to each cup. The overall operation results in final drug concentrations ranging from 500 to 0.06 mcg./ml. in twofold decrements. The Autotray is incubated for 18-20 hours at 37° C., at which time the trays are examined visually for growth as evidenced by turbidity, and the concentration of the last sample in the series showing no growth (or no turbidity) is recorded as the minimal inhibitory concentration (MIC). The compounds of formula I were thus found to be antibacterially effective against Staphylococcus aureus, Pseudomonas aeruginosa, Escherichia coli, and Proteus vulgaris at concentrations from 2 to 500 mcg./ml.
(§2) Data, expressed in terms of the minimum inhibitory concentration in mcg./ml., obtained in in vitro tests of the compounds of the invention in comparison with pyoluteorin against the bacterial organisms Staphylococcus aureus 209, Escherichia coli 198, Klebsiella pneumoniae 39645, Proteus vulgaris 9920, and Pseudomonas aeruginosa 211 (identified below as organisms A, B, C, D and E, respectively) are given in the table below.

In assay [2] the test system is Klebsiella pneumoniae 39645. The description is as above. The conditions noted are these: organism C. The procedure:
as §1, §2

For assay [3], the system named is Proteus vulgaris 9920. The assay is described as above. The procedure:
as §1, §2

Assay [4] has as its system Escherichia coli 198. The assay is described as above. How it is done: as §1, §2
The test system of assay [5] is Pseudomonas aeruginosa 211. The assay is described as above. How it is done: as §1, §2
Assay [6] has as its system Ceratocystis ulmi. Put plainly: agar growth test, percent inhibition of Ceratocystis ulmi. Particulars: 120 h, read-out: % Inhibition, Agar Growth. How it is done:
(§3) The test procedures, the agar growth and shake culture tests, used to determine this latter activity are described as follows: In the agar growth test a solution of 2 mg. of the test compound in 2 ml. of acetone was prepared and 0.2 ml. of this solution was added via sterile glass pipette to 20 ml. of molten (42° C.) sterile potato dextrose agar. Mixing was accomplished by repeated inversion of the tube. The mixture was poured into a sterile Petri dish, allowed to solidify at room temperature, and then was inoculated by placing in the center of the agar-chemical mixture a section (3 mm. diameter) of agar permeated with the mycelium of Ceratocystis ulmi. The inoculated dish was incubated at 25° C. for 5 days when the diameter of growth was measured and compared to the growth which had occurred in a control culture. The percent inhibition was calculated as: [formula] In the shake culture test, a 0.2 ml. aliquot of an acetone solution of the test compound (2 mg. in 2 ml.) was added to 20 ml. of sterile potato dextrose broth in a sterile 250 ml. Erlenmeyer flask. The flask was stoppered with a plug of sterile cotton, and the mixture was shaken for one hour on a New Brunswick "Gyrotatary" shake table. The mixture was inoculated by addition of a section (3 mm. diameter) of agar permeated with the mycelium of Ceratocystis ulmi and returned to the shake table where shaking was continued for five days at room temperature. The optical density of the mixture was measured, using an uninoculated sample of the broth as a blank, and compared with a control sample. The percent inhibition was calculated as: […]
(§4) Data obtained for the compounds of the invention in in vitro tests against fungal organism, Ceratocystis ulmi, in the agar growth and shake culture tests in comparison with the known antibiotic, pyoluteorin, at a standard dilution of 10 parts per million are given in terms of percent inhibition in the table below. The compounds are identified by reference to the example number above where their preparation is described.

Assay [7] relates to Ceratocystis ulmi. Briefly: shake culture test, percent inhibition of Ceratocystis ulmi. The conditions noted are these: 120 h, read-out: % Inhibition, Shake Culture. How it is done: as §3, §4
[8] abbreviates: organism A, Staphylococcus aureus 209, in vitro, read-out: minimum inhibitory concentration (MIC).
[9] abbreviates: organism D, Proteus vulgaris 9920, in vitro, read-out: minimum inhibitory concentration (MIC).
[10] abbreviates: organism B, Escherichia coli 198, in vitro, read-out: minimum inhibitory concentration (MIC).
Setting [11] is: organism E, Pseudomonas aeruginosa 211, in vitro, read-out: minimum inhibitory concentration (MIC).
Where [12] appears, read: 10 parts per million, agar, 25° C., 5 days.
Where [13] appears, read: 10 parts per million, broth, room temperature, five days.

≈ marks a conversion by molar mass, not a printed value. Where two headings read alike, the source gives them in different places.

As to `COc1ccc(C(=O)c2cc(Cl)c(Cl)[nH]2)c(OC)c1` [Example 1, 4,5-dichloropyrrol-2-yl 2,4-dimethoxyphenyl ketone], the MIC in assay [1] (setting [8]) was 62.5 mg/L (≈ 208 µM); in assay [2], > 125 mg/L; in assay [3] (setting [9]) it was > 125 mg/L; in assay [4] (setting [10]), > 125 mg/L; in assay [5] (setting [11]), > 125 mg/L. Besides, the inhibition of growth at 10 µg/mL in assay [6] (setting [12]) amounted to 28%; in assay [7] (setting [13]) it was 30%.

Consider `COc1ccc(OC)c(C(=O)c2cc(Br)c(Br)[nH]2)c1` [Example 2, 4,5-dibromopyrrol-2-yl 2,5-dimethoxyphenyl ketone], for which the MIC in assay [1] (setting [8]) is 31.3 mg/L (≈ 80.5 µM); in assay [2], > 125 mg/L; in assay [3] (setting [9]) it was > 125 mg/L; in assay [4] (setting [10]), > 125 mg/L; in assay [5] (setting [11]) it was > 125 mg/L. Further, the inhibition of growth at 10 µg/mL worked out at 32% in assay [6] (setting [12]) and 38% in assay [7] (setting [13]).

For the compound `COc1ccc(C(=O)c2cc(Cl)c(Cl)[nH]2)cc1OC` [Example 3, 4,5-dichloropyrrol-2-yl 3,4-dimethoxyphenyl ketone], the MIC in assay [1] (setting [8]), in assay [2], in assay [3] (setting [9]), in assay [4] (setting [10]) and in assay [5] (setting [11]) was > 125 mg/L each time. In addition, the inhibition of growth at 10 µg/mL in assay [6] (setting [12]) stood at 25%; in assay [7] (setting [13]) it was 75%.

For the compound `COc1ccc(OC)c(C(=O)c2cc(Cl)c(Cl)[nH]2)c1` [Example 4, 4,5-dichloropyrrol-2-yl 2,5-dimethoxyphenyl ketone], the MIC in assay [1] (setting [8]), in assay [2], in assay [3] (setting [9]), in assay [4] (setting [10]) and in assay [5] (setting [11]) was > 125 mg/L in each case. In addition, the results for the inhibition of growth at 10 µg/mL in assay [6] (setting [12]) and in assay [7] (setting [13]) were 48% and 72%, respectively.

`O=C(c1cc(Br)c(Br)[nH]1)c1cc(O)ccc1O` [Example 5, 4,5-dibromopyrrol-2-yl 2,5-dihydroxyphenyl ketone]: the MIC in assay [1] (setting [8]) is 15.6 mg/L (≈ 43.2 µM); in assay [2], > 125 mg/L; in assay [3] (setting [9]), 62.5 mg/L (≈ 173 µM); in assay [4] (setting [10]), 125 mg/L (≈ 346 µM); in assay [5] (setting [11]), 125 mg/L (≈ 346 µM). Moreover, the inhibition of growth at 10 µg/mL in assay [6] (setting [12]) was determined as 28%; in assay [7] (setting [13]), 83%.

Turning to `COc1ccc(C(=O)c2cc(Br)c(Br)[nH]2)cc1` [Example 6, 4,5-dibromopyrrol-2-yl 4-methoxyphenyl ketone], the MIC in assay [1] (setting [8]), in assay [2], in assay [3] (setting [9]), in assay [4] (setting [10]) and in assay [5] (setting [11]) was > 125 mg/L each time. The inhibition of growth at 10 µg/mL in assay [6] (setting [12]) came out at 11%; in assay [7] (setting [13]) it was 66%.

In the case of `COc1ccc(C(=O)c2cc(Cl)c(Cl)[nH]2)cc1` [Example 7, 4,5-dichloropyrrol-2-yl 4-methoxyphenyl ketone], the MIC in assay [1] (setting [8]) was > 31.6 mg/L; in assay [2] it was > 62.5 mg/L; in assay [3] (setting [9]) it was 62.5 mg/L (≈ 231 µM); in assay [4] (setting [10]), 15.6 mg/L (≈ 57.8 µM); in assay [5] (setting [11]), > 250 mg/L. The inhibition of growth at 10 µg/mL in assay [6] (setting [12]) turned out to be 32%; in assay [7] (setting [13]), 61%.

Consider `COc1cccc(C(=O)c2cc(Br)c(Br)[nH]2)c1` [Example 8, 4,5-dibromopyrrol-2-yl 3-methoxyphenyl ketone], for which the MIC in assay [1] (setting [8]) was 250 mg/L (≈ 696 µM); in assay [2], > 250 mg/L; in assay [3] (setting [9]), 125 mg/L (≈ 348 µM); in assay [4] (setting [10]) it was 250 mg/L (≈ 696 µM); in assay [5] (setting [11]), > 125 mg/L. For the same compound, the inhibition of growth at 10 µg/mL worked out at 28% in assay [6] (setting [12]) and 75% in assay [7] (setting [13]).

As to `O=C(c1cc(Cl)c(Cl)[nH]1)c1ccc(O)cc1O` [Example 9, 4,5-dichloropyrrol-2-yl 2,4-dihydroxyphenyl ketone], the MIC in assay [1] (setting [8]) was 3.9 mg/L (≈ 14.3 µM); in assay [2], > 125 mg/L; in assay [3] (setting [9]) it was > 125 mg/L; in assay [4] (setting [10]), 31.3 mg/L (≈ 115 µM); in assay [5] (setting [11]), > 125 mg/L. The inhibition of growth at 10 µg/mL is 55% in assay [6] (setting [12]) and 72% in assay [7] (setting [13]).

As to `O=C(c1cc(Cl)c(Cl)[nH]1)c1cc(O)ccc1O` [Example 10, 4,5-dichloropyrrol-2-yl 2,5-dihydroxyphenyl ketone], the MIC in assay [1] (setting [8]) was 0.98 mg/L (≈ 3.6 µM); in assay [2] it was 125 mg/L (≈ 459 µM); in assay [3] (setting [9]), 62.5 mg/L (≈ 230 µM); in assay [4] (setting [10]), 125 mg/L (≈ 459 µM); in assay [5] (setting [11]) it was 125 mg/L (≈ 459 µM). Moreover, the inhibition of growth at 10 µg/mL amounted to 21% in assay [6] (setting [12]) and 64% in assay [7] (setting [13]).

Turning to `O=C(c1cc(Cl)c(Cl)[nH]1)c1c(O)cccc1O` [Pyoluteorin, 4,5-dichloropyrrol-2-yl 2,6-dihydroxyphenyl ketone, reference compound], the MIC worked out at 3.1 mg/L (≈ 11.4 µM) in assay [1] (Staphylococcus aureus, 209, read-out: minimum inhibitory concentration (MIC)); 125 mg/L (≈ 459 µM) in assay [3] (Proteus vulgaris, 9920, read-out: minimum inhibitory concentration (MIC)); 6.2 mg/L (≈ 22.8 µM) in assay [4] (Escherichia coli, 198, read-out: minimum inhibitory concentration (MIC)); 125 mg/L (≈ 459 µM) in assay [5] (Pseudomonas aeruginosa, 211, read-out: minimum inhibitory concentration (MIC)). Also, the inhibition of growth at 10 µg/mL in assay [6] stood at 4%; in assay [7] it was 38%.
